Drawing on patent US20120053148A1, “INHIBITORS OF HEPATITIS C VIRUS” (GILEAD SCIENCES, INC., priority 2010, published 2012), this text covers EC50 and inhibition for 50 molecules.

As usually defined, the inhibition is the change of the read-out against control, counted positive when it falls.

In one test the test system is HCV Replicon IB. Put plainly: HCV replicon assay in Huh-7 cells, genotype 1b (Rluc luciferase readout). The following applies: HCV1B replicon, Huh-7 cells, 3 days; read-out: EC50_HCV1B_. The test is classed as cell-based, hepatitis C virus. On the technique in general: In antiviral work, replicon cells carry a viral genome segment that copies itself.
As to `Cc1cc(-c2nnc(N[C@H]3CC[C@@](C)(O)CC3)o2)nc2c(C(C)(C)C)cc(OCC(F)(F)F)cc12` [Compound 496], the EC50 was 13.7 nM.

The same test, now with this note: Hepatitis C virus, 72 h; 10 uM; 1b-Rluc replicon, Huh-7 cells, 3 days; read-out: Inhibition @ 10 uM in 1b-Rluc.
`Cc1cc(C(=O)NCC(C)(C)O)nc2c(C(F)(F)F)cc(C3CC3)cc12` [Compound 93]: the inhibition at 10 µM came out at 99%. Regarding `CNc1cc(C(F)(F)F)c2nc(C(=O)NCc3ccccn3)cc(C)c2c1` [Compound 181], the inhibition at 10 µM is 99.4%. As to `Cc1cc(-c2nnc(NCCC3OCCO3)s2)nc2c(C(F)(F)F)cc(C3CC3)cc12` [Compound 294], the inhibition at 10 µM turned out to be 99.9%.

As to `O=C(NCc1ccccn1)c1cc(Cl)c2cc(OC(F)(F)F)cc(/C=C/c3ccccc3)c2n1` [Compound 240], the inhibition at 10 µM turned out to be 42.2%. Still for that read-out and setting: for `Cc1cc(C(=O)NCc2cc(CN3CCOCC3)ccn2)nc2c(C(F)(F)F)cc(C3CC3)cc12` [Compound 130] the value was 84.7%; for `Nc1cc(C(=O)NCC2(O)CC2)nc2c(C(F)(F)F)cc(C3CC3)cc12` [Compound 221], 98.8%.

On to `Nc1cc(C(=O)NCC2CS(=O)(=O)CCN2)nc2c(C(F)(F)F)cc(OC(F)F)cc12` (centres unmarked) [Compound 198], for which the inhibition at 10 µM came out at 98.4%. The same measure, in the same setting: in the case of `Cc1cc(-c2nnc(NCC3(C)OCCO3)o2)nc2c(C(F)(F)F)cc(C3CC3)cc12` [Compound 247] it was 100%; in that of `CNCCCNc1nnc(-c2cc(C)c3cc(C4CC4)cc(C(F)(F)F)c3n2)s1` [Compound 300], 97.9%. The same measure, in the same setting: for `O=C(NCc1ccccn1)c1cnc2cc(-c3ccccc3)cc(C(F)(F)F)c2n1` [Compound 173] the value was 86.3%; for `CCC(O)CNC(=O)c1cc(Cl)c2cc(OC(F)F)cc(C(F)(F)F)c2n1` (centres unmarked) [Compound 204], 95.5%; for `Cc1cc(C(=O)NCc2ccc(C#N)cn2)nc2c(C(F)(F)F)cc(C3CC3)cc12` [Compound 112], 99.7%. The same measure, in the same setting: for `N#Cc1cc(-c2nnc(Nc3ccccc3)o2)nc2c(C(F)(F)F)cc(-c3ccccc3)cc12` [Compound 175] the value was 89.3%; for `CCC(CNC(=O)c1cc(Cl)c2cc(OC(F)F)cc(C(F)(F)F)c2n1)=NOC` [Compound 206], 64%.

As for `Cc1cc(-c2nnc(NCCC(C)O)s2)nc2c(C(F)(F)F)cc(C3CC3)cc12` (centres unmarked) [Compound 302], the inhibition at 10 µM amounted to 99.9%. Still for that read-out and setting: in the case of `Cc1cc(C(=O)NCC2OCCO2)nc2c(C(F)(F)F)cc(C3CC3)cc12` [Compound 96] it was 99.9%; in that of `O=C(NCc1ccccn1)c1cc(C2CC2)c2cc(C3CC3)cc(C(F)(F)F)c2n1` [Compound 214], 92.6%. On the same count and under the same terms, in the case of `CCOCCOCCOCCCNc1nnc(-c2cc(C)c3cc(C4CC4)cc(C(F)(F)F)c3n2)s1` [Compound 293] it was 96%; in that of `Cc1cc(C(=O)NCc2ccccn2)nc2c(C(F)(F)F)cc(C3(C)CC3)cc12` [Compound 138], 99%; in that of `Cc1cc(C(=O)NCC2CCCC(=O)N2)nc2c(C(F)(F)F)cc(C3CC3)cc12` (centres unmarked) [Compound 91], 92.7%.

The test is the same for the next values; noted with them: Hepatitis C virus, Huh-7, 72 h, HCV1B replicon, Huh-7 cells, 3 days; read-out: EC50_HCV1B_.
For the molecule `CC(C)(C)c1cc(C2CC2)cc2c(N)nc(C(=O)NCc3ncccn3)nc12` [Compound 433], the EC50 is 1.19 nM. Still for that read-out and setting: in the case of `CCCO[C@H]1CN[C@H](CNC(=O)c2cc(N)c3cc(C4CC4)cc(C(C)(C)C)c3n2)C1` [Compound 331] it was 243 nM; in that of `Cc1cc(-c2nnc(N[C@H]3C[C@@H](O)C3)o2)nc2c(C(C)(C)C)cc(C3CC3)cc12` [Compound 421], 3.24 nM. Still for that read-out and setting: in the case of `Cc1cc(C(=O)NCC2COC2)nc2c(C(C)(C)C)cc(C3CC3)cc12` [Compound 424] it was 488 nM; in that of `CO[C@@H]1CNC(CNc2nnc(-c3cc(C)c4cc(C5CC5)cc(C(F)(F)F)c4n3)s2)C1` (some centres unmarked) [Compound 311], 1140 nM. On the same count and under the same terms, for `Cc1cc(-c2nnc(NCC3OCCO3)o2)nc2c(C(C)(C)C)cc(OCC(F)F)cc12` [Compound 526] the value was 1.64 nM; for `Cc1cc(-c2nnc(NC3CSC3)o2)nc2c(C(C)(C)C)cc(OCC(F)(F)F)cc12` [Compound 505], 6.25 nM.

As for `Cc1cc(-c2nnc(Nc3ccccn3)o2)nc2c(C(C)(C)C)cc(C3CC3)cc12` [Compound 402], the EC50 came to 2.86 nM.

Turning to `Cc1cc(-c2nnc(NCC3OCCO3)o2)nc2c(OC(F)(F)F)cc(OCC(F)(F)F)cc12` [Compound 539], the EC50 worked out at 4.12 nM. Still for that read-out and setting: for `Cc1cc(-c2nnc(NC[C@@H]3CCCO3)o2)nc2c(C(C)(C)C)cc(C3CC3)cc12` [Compound 398] the value was 3.69 nM; for `Cc1cc(-c2nnc(Nc3cccnc3)o2)nc2c(C(C)(C)C)cc(OCC(F)(F)F)cc12` [Compound 457], 4.1 nM; for `Cc1cc(-c2nnc(NCC3O[C@H]4COC[C@H]4O3)o2)nc2c(C(C)(C)C)cc(C3CC3)cc12` (some centres unmarked) [Compound 413], 311 nM. The same measure, in the same setting: for `Cc1cc(-c2nnc(N[C@H]3C[C@](O)(CF)C3)o2)nc2c(C(C)(C)C)cc(OCCF)cc12` [Compound 529] the value was 1.37 nM; for `CC(C)(C)c1cc(C2CC2)cc2c(N)cc(-c3nnc(NCCCO)o3)nc12` [Compound 365], 4.87 nM.

For the molecule `Cc1cc(C(=O)NCC2CC(F)(F)CN2)nc2c(OC(F)(F)F)cc(C3CC3)cc12` (centres unmarked) [Compound 437], the EC50 is 20.2 nM. Same read-out and setting: for `Cc1cc(-c2nnc(N[C@H]3C[C@](O)(CCF)C3)o2)nc2c(C(C)(C)C)cc(OCC(F)(F)F)cc12` [Compound 482] the value was 2.96 nM; for `Cc1cc(-c2nnc(NCCCCO)s2)nc2c(C(F)(F)F)cc(C3CC3)cc12` [Compound 307], 14.1 nM. The same measure, in the same setting: in the case of `CC(C)(C)c1cc(C2CC2)cc2c(N)cc(C(=O)NC[C@@H]3CSCN3)nc12` [Compound 336] it was 4.45 nM. The same measure, in the same setting: for `Cc1cc(-c2nnc(N[C@H]3CC[C@@H](O)CC3)o2)nc2c(C(C)(C)C)cc(OCC(F)(F)F)cc12` [Compound 498] the value was 2.39 nM. Turning to `CO[C@@H]1CNC(CNC(=O)c2cc(C)c3cc(C4CC4)cc(OC(F)(F)F)c3n2)C1` (some centres unmarked) [Compound 438], the EC50 is 46 nM. On the same count and under the same terms, in the case of `Cc1cc(-c2nnc(NCC[C@H](C)O)o2)nc2c(C(C)(C)C)cc(OCC(F)(F)F)cc12` [Compound 456] it was 3.3 nM; in that of `CC(C)(C)c1cc(C2CC2)cc2c(NC(=O)CN)cc(-c3nnc(NCC4OCCO4)o3)nc12` [Compound 361], 7.36 nM.

On to `Cc1cc(-c2nnc(NCCC(C)(C)O)o2)nc2c(C(C)(C)C)cc(C3CC3)cc12` [Compound 409], for which the EC50 turned out to be 9.43 nM.

Consider `Cc1cc(-c2nnc(N[C@@H]3CCOC3)o2)nc2c(C(C)(C)C)cc(OCC(F)(F)F)cc12` [Compound 450], for which the EC50 was 3.15 nM.

In the case of `Cc1cc(-c2nnc(NCC3OCCS3(=O)=O)o2)nc2c(C(C)(C)C)cc(OCC(F)(F)F)cc12` (centres unmarked) [Compound 483], the EC50 was 1.72 nM.

As to `CC(C)(O)CCNc1nnc(-c2cc(N)c3cc(C4CC4)cc(C(C)(C)C)c3n2)o1` [Compound 367], the EC50 is 2.15 nM. On the same count and under the same terms, in the case of `Cc1cc(-c2nnc(NCC3OC[C@H](C)O3)o2)nc2c(C(C)(C)C)cc(C3CC3)cc12` (some centres unmarked) [Compound 412] it was 36.2 nM. On the same count and under the same terms, for `Cc1cc(-c2nnc(N[C@H]3C[C@](O)(CO)C3)o2)nc2c(C(C)(C)C)cc(OCC(F)(F)F)cc12` [Compound 499] the value was 16.8 nM.

Staying with this test, now noted: Hepatitis C virus, Huh-7, 72 h; read-out: EC50_HCV1B_.
As for `CC(C)(C)c1cc(C2CC2)cc2c(NC(=O)CN)cc(-c3nnc(NC4CCCC4)o3)nc12` [Compound 360], the EC50 was 44.1 nM.
